Where two headings read alike, the source gives them in different places.
Assays:
[1] = molecular target: mTOR (human recombinant aa mTOR 1360-2549) (Homo sapiens (Human), UniProt P42345); assay: mTOR enzymatic test by TR-FRET (phosphorylation of GFP-4EBP1); assay type: biochemical
In short: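 TR-FRET detection of GFP-4EBP1 phosphorylation by a terbium-labelled anti-phospho-Thr46 antibody. Kinase reaction ran 30 min at room temperature, was quenched with EDTA (10 mM final) plus Tb-antibody (2 nM final) and left 60 min. Emission at 520 and 490 nm after 340 nm excitation, reported as the 520/490 ratio.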

[2] = test system: Akt-pS473 in U87MG cells
[3] = molecular target: PI3Kα (p110α/p85α) (Homo sapiens (Human), UniProt P42336); assay: PI3Kα enzymatic test by measuring the consumption of ATP; assay type: biochemical
Chain of PI3Kα (p110α/p85α) (P42336 whole entry): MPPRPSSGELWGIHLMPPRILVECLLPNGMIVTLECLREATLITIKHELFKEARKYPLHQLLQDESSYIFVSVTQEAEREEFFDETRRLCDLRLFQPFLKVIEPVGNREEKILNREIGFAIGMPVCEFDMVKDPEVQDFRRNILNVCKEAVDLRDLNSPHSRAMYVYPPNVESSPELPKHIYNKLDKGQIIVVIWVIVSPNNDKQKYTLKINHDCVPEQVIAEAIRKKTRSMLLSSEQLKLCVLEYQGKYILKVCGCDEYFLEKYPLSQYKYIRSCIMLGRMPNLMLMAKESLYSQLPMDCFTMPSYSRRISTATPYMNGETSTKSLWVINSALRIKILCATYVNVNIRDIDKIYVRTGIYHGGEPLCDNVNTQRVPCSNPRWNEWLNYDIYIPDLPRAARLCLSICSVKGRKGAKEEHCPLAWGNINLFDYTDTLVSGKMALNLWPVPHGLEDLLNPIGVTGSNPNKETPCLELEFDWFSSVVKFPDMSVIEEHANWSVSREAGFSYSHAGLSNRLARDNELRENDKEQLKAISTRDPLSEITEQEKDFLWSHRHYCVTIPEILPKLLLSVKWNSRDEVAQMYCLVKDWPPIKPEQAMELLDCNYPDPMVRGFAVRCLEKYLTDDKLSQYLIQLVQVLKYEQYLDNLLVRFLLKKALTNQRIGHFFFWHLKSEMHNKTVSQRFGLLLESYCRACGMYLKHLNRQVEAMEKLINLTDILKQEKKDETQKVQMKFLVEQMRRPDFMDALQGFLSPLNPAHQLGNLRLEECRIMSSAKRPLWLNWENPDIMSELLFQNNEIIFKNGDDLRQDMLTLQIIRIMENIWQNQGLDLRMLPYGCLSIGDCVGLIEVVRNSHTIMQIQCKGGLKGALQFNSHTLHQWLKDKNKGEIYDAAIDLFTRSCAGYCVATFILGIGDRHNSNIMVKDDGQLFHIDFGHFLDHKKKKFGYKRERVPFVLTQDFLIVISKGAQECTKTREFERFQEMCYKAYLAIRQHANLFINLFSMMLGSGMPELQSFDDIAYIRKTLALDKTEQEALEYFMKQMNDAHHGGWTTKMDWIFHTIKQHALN
Chain of PI3Kα (p110α/p85α) (P27986 whole entry partner): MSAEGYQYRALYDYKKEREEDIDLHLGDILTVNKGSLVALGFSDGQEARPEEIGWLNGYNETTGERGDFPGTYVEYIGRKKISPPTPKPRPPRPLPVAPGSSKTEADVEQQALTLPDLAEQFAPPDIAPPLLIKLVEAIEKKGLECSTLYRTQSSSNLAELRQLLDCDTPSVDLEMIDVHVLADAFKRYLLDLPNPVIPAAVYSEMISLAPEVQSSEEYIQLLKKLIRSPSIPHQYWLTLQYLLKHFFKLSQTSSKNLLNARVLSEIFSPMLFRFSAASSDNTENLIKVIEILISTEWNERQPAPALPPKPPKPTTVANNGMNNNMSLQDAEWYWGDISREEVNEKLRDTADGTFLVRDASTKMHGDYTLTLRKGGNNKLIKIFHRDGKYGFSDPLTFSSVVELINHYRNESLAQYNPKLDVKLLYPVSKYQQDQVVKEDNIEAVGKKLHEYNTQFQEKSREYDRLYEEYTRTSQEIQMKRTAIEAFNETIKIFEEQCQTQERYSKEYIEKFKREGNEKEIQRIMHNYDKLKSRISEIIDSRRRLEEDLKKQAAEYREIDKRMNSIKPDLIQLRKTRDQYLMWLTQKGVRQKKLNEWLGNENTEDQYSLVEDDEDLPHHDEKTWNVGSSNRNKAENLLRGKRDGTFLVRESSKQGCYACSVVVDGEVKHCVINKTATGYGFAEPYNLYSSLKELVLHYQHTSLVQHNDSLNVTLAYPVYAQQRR
In short: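 p110α/p85α (1.7 μg/ml) with 50 μM PIP2 and 2 μM ATP in pH 7.5 Tris buffer with EGTA, MgCl2, Chaps, DTT; reaction 90 min. Remaining ATP measured by luciferin/luciferase luminescence; IC50 from threefold serial dilutions spanning at least 10 000-fold.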

[4] = test system: U87MG tumour cells; assay: Test of in vitro proliferation of U87MG tumour cells; assay type: cell-based; settings: U87MG cells, 72 hours, read-out: U87 Cell Proliferation IC50
Protocol: Model 4: Test of in vitro Proliferation of U87MG Tumour Cells.
The cell growth is determined with the reagent CellTiter 96 AQueous One Solution Cell Proliferation Assay from Promega (Cat. No. G3581).

[5] = Homo sapiens, U-87 MG, read-out: U87 Akt-pS473 % Inhibition or IC50, nM (IC50), U87MG cells

Chain of mTOR (human recombinant aa mTOR 1360-2549) (P42345 1360-2549): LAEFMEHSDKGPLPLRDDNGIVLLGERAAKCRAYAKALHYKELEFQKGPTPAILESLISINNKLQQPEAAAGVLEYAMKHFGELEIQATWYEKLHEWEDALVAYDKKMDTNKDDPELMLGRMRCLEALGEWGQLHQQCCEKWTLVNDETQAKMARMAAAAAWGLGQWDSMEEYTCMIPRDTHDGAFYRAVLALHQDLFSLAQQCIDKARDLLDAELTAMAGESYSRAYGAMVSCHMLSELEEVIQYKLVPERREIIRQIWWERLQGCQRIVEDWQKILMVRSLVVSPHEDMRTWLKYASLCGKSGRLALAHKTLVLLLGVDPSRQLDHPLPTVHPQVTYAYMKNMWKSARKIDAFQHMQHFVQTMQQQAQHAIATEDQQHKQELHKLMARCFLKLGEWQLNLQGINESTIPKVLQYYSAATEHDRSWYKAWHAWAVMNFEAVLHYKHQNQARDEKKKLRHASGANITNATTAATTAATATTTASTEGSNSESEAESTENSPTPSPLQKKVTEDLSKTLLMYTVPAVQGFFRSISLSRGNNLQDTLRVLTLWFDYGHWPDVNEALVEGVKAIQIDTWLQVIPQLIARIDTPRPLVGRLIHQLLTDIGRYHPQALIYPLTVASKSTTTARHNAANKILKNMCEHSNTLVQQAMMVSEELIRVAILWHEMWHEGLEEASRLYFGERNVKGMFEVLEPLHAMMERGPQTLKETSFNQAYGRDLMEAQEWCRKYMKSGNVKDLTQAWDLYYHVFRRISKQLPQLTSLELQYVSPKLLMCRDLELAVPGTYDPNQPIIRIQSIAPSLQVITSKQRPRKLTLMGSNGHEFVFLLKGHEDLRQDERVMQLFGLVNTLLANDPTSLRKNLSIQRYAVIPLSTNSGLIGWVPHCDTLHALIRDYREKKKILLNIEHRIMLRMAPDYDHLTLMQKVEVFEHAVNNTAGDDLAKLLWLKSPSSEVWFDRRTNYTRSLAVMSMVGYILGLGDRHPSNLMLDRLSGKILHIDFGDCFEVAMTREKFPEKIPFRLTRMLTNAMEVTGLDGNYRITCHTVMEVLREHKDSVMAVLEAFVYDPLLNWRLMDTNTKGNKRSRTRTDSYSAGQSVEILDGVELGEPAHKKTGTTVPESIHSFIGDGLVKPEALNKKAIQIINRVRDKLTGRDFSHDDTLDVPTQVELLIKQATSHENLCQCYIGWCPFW

Compound | IC50 [1] [nM] | IC50 ([2]; read-out: U87 Akt-pS473 % Inhibition or IC50, nM (IC50), U87MG cells) [nM] | PI3Ka IC50 [3] [µM] | IC50 [4] [nM] | IC50 [2, 5] [nM] | IC50 ([4]; Homo sapiens, U-87 MG, 72 h) [nM]
CCN1CC(C)(C)Oc2nc(N3CC4CCC(C3)O4)nc(-c3ccc(NC(=O)Nc4ccc(OC)nc4)c(F)c3)c2C1=O [Example 240, 1-{4-[6-Ethyl-8,8-dimethyl-2-(8-oxa-3-azabicyclo[3.2.1]oct-3-yl)-5-oxo-5,6,7,8-tetrahydro-9-oxa-1,3,6-triazabenzocyclohepten-4-yl]-2-fluorophenyl}-3-(6-methoxypyridin-3-yl)urea] | 61 | 29 | >10 | 75 | – | –
CCN1CC(C)(C)Oc2nc(N3C4CCC3COC4)nc(-c3ccc(NC(=O)Nc4ccnc(C)c4)c(F)c3)c2C1=O [Example 55, 1-{4-[6-Ethyl-8,8-dimethyl-2-(3-oxa-8-azabicyclo[3.2.1]oct-8-yl)-5-oxo-5,6,7,8-tetrahydro-9-oxa-1,3,6-triazabenzocyclohepten-4-yl]-2-fluorophenyl}-3-(2-methylpyridin-4-yl)urea] | 66 | – | 4.81 | – | 27 | 54
CCN1CC(C)(C)Oc2nc(N3C4CCC3COC4)nc(-c3ccc(NC(=O)OCCO)cc3)c2C1=O [Example 65, {4-[6-Ethyl-8,8-dimethyl-2-(3-oxa-8-azabicyclo[3.2.1]oct-8-yl)-5-oxo-5,6,7,8-tetrahydro-9-oxa-1,3,6-triazabenzocyclohepten-4-yl]phenyl}carbamic acid 2-hydroxyethyl ester] | 27 | – | 22.4 | – | 27 | 257
CN1CC(C)(C)Oc2nc(N3CC4CCC(C3)O4)nc(-c3ccc(NC(=O)Nc4ccccn4)cc3)c2C1=O [Example 39, 1-Pyridin-2-yl-3-{4-[6,8,8-trimethyl-2-(8-oxa-3-azabicyclo[3.2.1]oct-3-yl)-5-oxo-5,6,7,8-tetrahydro-9-oxa-1,3,6-triazabenzocyclohepten-4-yl]phenyl}urea] | 26 | – | 5.87 | – | 34 | 207
CN1CC(C)(C)Oc2nc(N3C4CCC3COC4)nc(-c3ccc(NC(=O)Nc4ccncc4)cc3)c2C1=O [Example 68, 1-Pyridin-4-yl-3-{4-[6,8,8-trimethyl-2-(3-oxa-8-azabicyclo[3.2.1]oct-8-yl)-5-oxo-5,6,7,8-tetrahydro-9-oxa-1,3,6-triazabenzocyclohepten-4-yl]phenyl}urea] | 12 | – | 1.36 | – | 16 | 82
CCN1CC(C)(C)Oc2nc(N3C4CCC3COC4)nc(-c3ccc(NC(=O)Nc4ccc(N5C[C@@H]6C[C@H]5CO6)nc4)c(F)c3)c2C1=O [Example 253, 1-{4-[6-Ethyl-8,8-dimethyl-2-(3-oxa-8-azabicyclo[3.2.1]oct-8-yl)-5-oxo-5,6,7,8-tetrahydro-9-oxa-1,3,6-triazabenzocyclohepten-4-yl]-2-fluorophenyl}-3-[(1S,4S)-6-(2-oxa-5-azabicyclo[2.2.1]hept-5-yl)pyridin-3-yl]urea] | 72 | – | >10 | – | 68 | 167
C[C@@H](CO)OC(=O)Nc1ccc(-c2nc(N3CC4CCC(C3)O4)nc3c2C(=O)N(C)CC(C)(C)O3)cc1 [Example 238, {4-[6,8,8-Trimethyl-2-(8-oxa-3-azabicyclo[3.2.1]oct-3-yl)-5-oxo-5,6,7,8-tetrahydro-9-oxa-1,3,6-triazabenzocyclohepten-4-yl]phenyl}carbamic acid (S)-2-hydroxy-1-methylethyl ester] | 678 | – | >10 | – | > 1000 | 1700
CNC(=O)Nc1ccc(-c2nc(N3CCOC[C@@H]3C)nc3c2C(=O)N(CCOC)CC(C)(C)O3)cc1F [Example 225, 1-{2-Fluoro-4-[6-(2-methoxyethyl)-8,8-dimethyl-2-((S)-3-methylmorpholin-4-yl)-5-oxo-5,6,7,8-tetrahydro-9-oxa-1,3,6-triazabenzocyclohepten-4-yl]phenyl}-3-methylurea] | 36 | – | 1.36 | – | 91 | 365
CCN1CC(C)(C)Oc2nc(N3CCOC[C@@H]3C)nc(-c3ccc(NC(=O)Nc4ccc(N5CCOCC5)cc4)c(F)c3)c2C1=O [Example 227, 1-{4-[6-Ethyl-8,8-dimethyl-2-((S)-3-methylmorpholin-4-yl)-5-oxo-5,6,7,8-tetrahydro-9-oxa-1,3,6-triazabenzocyclohepten-4-yl]-2-fluorophenyl}-3-(4-morpholin-4-ylphenyl)urea] | 76 | – | 0.484 | – | 7 | 29
Cn1ccc(NC(=O)Nc2ccc(-c3nc(N4CC5CCC(C4)O5)nc4c3C(=O)N(C3CCOCC3)CC(C)(C)O4)cc2)n1 [Example 16, 1-{4-[8,8-dimethyl-2-(8-oxa-3-azabicyclo[3.2.1]oct-3-yl)-5-oxo-6-(tetrahydropyran-4-yl)-5,6,7,8-tetrahydro-9-oxa-1,3,6-triazabenzocyclohepten-4-yl]phenyl}-3-(1-methyl-1H-pyrazol-3-yl)urea] | 19 | – | >10 | – | 269 | 527
CCN1CC(C)(C)Oc2nc(N3CC4CCC(C3)O4)nc(-c3ccc(NC(=O)Nc4ccc(N5CCOC[C@@H]5C)nc4)c(F)c3)c2C1=O [Example 29, 1-{4-[6-ethyl-8,8-dimethyl-2-(8-oxa-3-azabicyclo[3.2.1]oct-3-yl)-5-oxo-5,6,7,8-tetrahydro-9-oxa-1,3,6-triazabenzocyclohepten-4-yl]-2-fluorophenyl}-3-[6-((S)-3-methylmorpholin-4-yl)pyridin-3-yl]urea] | 38 | – | >10 | – | 32 | 165
CC[C@H]1COCCN1c1nc2c(c(-c3ccc(NC(=O)Nc4ccc(C)nc4)c(F)c3)n1)C(=O)N(CC)CC(C)(C)O2 [Example 37, 1-{4-[6-Ethyl-2-((S)-3-ethylmorpholin-4-yl)-8,8-dimethyl-5-oxo-5,6,7,8-tetrahydro-9-oxa-1,3,6-triazabenzocyclohepten-4-yl]-2-fluorophenyl}-3-(6-methylpyridin-3-yl)urea] | 122 | – | 8.63 | – | 54 | 869
CCN1CC(C)(C)Oc2nc(N3CC4CCC(C3)O4)nc(-c3ccc(NC(=O)Nc4ccc(N(C)C)cn4)cc3)c2C1=O [Example 64, 1-(5-Dimethylaminopyridin-2-yl)-3-{4-[6-ethyl-8,8-dimethyl-2-(8-oxa-3-azabicyclo[3.2.1]oct-3-yl)-5-oxo-5,6,7,8-tetrahydro-9-oxa-1,3,6-triazabenzocyclohepten-4-yl]phenyl}urea] | 24 | – | >10 | – | 37 | 270
CCN1CC(C)(C)Oc2nc(N3CCOC[C@@H]3C)nc(-c3ccc(NC(=O)Nc4ccc(F)cc4F)cc3)c2C1=O [Example 191, 1-(2,4-Difluorophenyl)-3-{4-[6-ethyl-8,8-dimethyl-2-((S)-3-methylmorpholin-4-yl)-5-oxo-5,6,7,8-tetrahydro-9-oxa-1,3,6-triazabenzocyclohepten-4-yl]phenyl}urea] | 24 | – | 0.57 | – | 26 | 105
CCN1CC(C)(C)Oc2nc(N3CCOC[C@@H]3C)nc(-c3ccc(NC(=O)Nc4ccc(OC)cn4)c(F)c3)c2C1=O [Example 163, 1-{4-[6-Ethyl-8,8-dimethyl-2-((S)-3-methylmorpholin-4-yl)-5-oxo-5,6,7,8-tetrahydro-9-oxa-1,3,6-triazabenzocyclohepten-4-yl]-2-fluorophenyl}-3-(5-methoxypyridin-2-yl)urea] | 55 | – | 3.87 | – | 130 | 1020
CCN1CC(C)(C)Oc2nc(N3CC4CCC(C3)O4)nc(-c3ccc(NC(=O)Nc4cc(OC)ccn4)cc3)c2C1=O [Example 35, 1-{4-[6-Ethyl-8,8-dimethyl-2-(8-oxa-3-azabicyclo[3.2.1]oct-3-yl)-5-oxo-5,6,7,8-tetrahydro-9-oxa-1,3,6-triazabenzocyclohepten-4-yl]phenyl}-3-(4-methoxypyridin-2-yl)urea] | 37 | – | >10 | – | 75 | 336
CCN1CC(C)(C)Oc2nc(N3C4CCC3COC4)nc(-c3ccc(NC(=O)Nc4ccc(C)nc4)c(F)c3)c2C1=O [Example 229, 1-{4-[6-Ethyl-8,8-dimethyl-2-(3-oxa-8-azabicyclo[3.2.1]oct-8-yl)-5-oxo-5,6,7,8-tetrahydro-9-oxa-1,3,6-triazabenzocyclohepten-4-yl]-2-fluorophenyl}-3-(6-methylpyridin-3-yl)urea] | 43 | – | >10 | – | 19 | 86
